Assays:
CYP3A4(BFC) = CYP3A4(BFC) (Homo sapiens, UniProt P08684); assay: CYP3A4(BFC) inhibition (fluorescent substrate); assay type: in vitro ADME; settings: read-out: Cyp IC50 3A4(BFC)
How it was run: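 Inhibition was followed as loss of fluorescent metabolite from a known substrate, with compound in co-factor mix as a 10-point 1:1 serial dilution (100 mM DMSO stock).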

[1] = system: SKMEL2 melanoma cells (Ras mutation); assay: SKMEL2 cell growth inhibition (ATPlite); assay type: cell-based; settings: Homo sapiens, SK-MEL-2, 72 h; SKMEL2, 3 days incubation
How it was run: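 SKMEL2 cells seeded at 2,000 per well overnight, then exposed to an 8-point 1:3 compound titration (top 10 μM final) for 3 days at 37 °C. ATPlite luminescence used as a measure of cell number to derive IC50.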

B-Raf V600E = B-Raf V600E (Homo sapiens, UniProt P15056, V600E); assay: B-Raf V600E biochemical kinase inhibition (AlphaScreen, biotin-MEK1 substrate); settings: 100 μM ATP
Sequence of B-Raf V600E (P15056 whole entry V600E): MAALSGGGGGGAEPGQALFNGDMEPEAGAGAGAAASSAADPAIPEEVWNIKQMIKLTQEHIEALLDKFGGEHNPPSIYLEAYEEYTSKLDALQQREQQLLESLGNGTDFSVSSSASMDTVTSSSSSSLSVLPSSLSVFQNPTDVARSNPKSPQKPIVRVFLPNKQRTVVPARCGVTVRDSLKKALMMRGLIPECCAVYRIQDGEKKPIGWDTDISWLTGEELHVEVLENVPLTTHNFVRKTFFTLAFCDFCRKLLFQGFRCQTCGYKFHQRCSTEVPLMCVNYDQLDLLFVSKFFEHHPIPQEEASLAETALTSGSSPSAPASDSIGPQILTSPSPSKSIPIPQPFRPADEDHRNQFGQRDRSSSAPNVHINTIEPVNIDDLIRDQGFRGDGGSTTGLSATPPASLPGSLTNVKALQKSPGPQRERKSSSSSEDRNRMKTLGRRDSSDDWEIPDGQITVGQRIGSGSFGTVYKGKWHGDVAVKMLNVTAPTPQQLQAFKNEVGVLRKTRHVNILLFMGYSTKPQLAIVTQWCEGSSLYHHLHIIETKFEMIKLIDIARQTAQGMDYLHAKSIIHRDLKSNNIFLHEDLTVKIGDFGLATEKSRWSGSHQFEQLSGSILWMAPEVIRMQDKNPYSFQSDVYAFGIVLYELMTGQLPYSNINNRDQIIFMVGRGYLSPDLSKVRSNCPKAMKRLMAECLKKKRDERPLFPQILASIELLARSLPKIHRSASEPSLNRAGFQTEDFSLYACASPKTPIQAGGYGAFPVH
How it was run: (§1)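 Raf kinases phosphorylating biotin-MEK1, reaction started with ATP at 100 μM final. Compounds tested at 8 points by serial dilution from a 0.1 mM DMSO stock.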

c-Raf-1 = c-Raf-1 (Homo sapiens, UniProt P04049); assay: c-Raf-1 biochemical kinase inhibition (AlphaScreen, biotin-MEK1 substrate); settings: 100 μM ATP
Sequence of c-Raf-1 (P04049 whole entry): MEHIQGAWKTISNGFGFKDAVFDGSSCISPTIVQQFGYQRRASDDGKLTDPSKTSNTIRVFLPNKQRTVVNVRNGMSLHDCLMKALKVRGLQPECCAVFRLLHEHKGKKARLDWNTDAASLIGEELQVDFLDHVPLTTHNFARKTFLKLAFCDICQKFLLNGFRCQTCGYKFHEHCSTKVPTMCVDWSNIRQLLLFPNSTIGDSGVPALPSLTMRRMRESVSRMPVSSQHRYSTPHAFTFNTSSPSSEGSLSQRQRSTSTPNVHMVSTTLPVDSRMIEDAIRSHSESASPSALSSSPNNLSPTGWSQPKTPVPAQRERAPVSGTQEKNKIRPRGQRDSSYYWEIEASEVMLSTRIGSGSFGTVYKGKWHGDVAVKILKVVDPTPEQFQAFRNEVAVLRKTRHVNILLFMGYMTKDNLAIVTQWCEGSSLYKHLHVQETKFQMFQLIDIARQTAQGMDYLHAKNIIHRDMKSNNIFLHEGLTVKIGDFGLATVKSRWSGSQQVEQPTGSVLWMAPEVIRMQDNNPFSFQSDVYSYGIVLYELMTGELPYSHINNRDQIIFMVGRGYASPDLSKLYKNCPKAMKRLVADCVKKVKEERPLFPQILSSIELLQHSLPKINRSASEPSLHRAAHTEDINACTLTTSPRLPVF
How it was run: as §1

Sequence of CYP3A4(BFC) (P08684 whole entry): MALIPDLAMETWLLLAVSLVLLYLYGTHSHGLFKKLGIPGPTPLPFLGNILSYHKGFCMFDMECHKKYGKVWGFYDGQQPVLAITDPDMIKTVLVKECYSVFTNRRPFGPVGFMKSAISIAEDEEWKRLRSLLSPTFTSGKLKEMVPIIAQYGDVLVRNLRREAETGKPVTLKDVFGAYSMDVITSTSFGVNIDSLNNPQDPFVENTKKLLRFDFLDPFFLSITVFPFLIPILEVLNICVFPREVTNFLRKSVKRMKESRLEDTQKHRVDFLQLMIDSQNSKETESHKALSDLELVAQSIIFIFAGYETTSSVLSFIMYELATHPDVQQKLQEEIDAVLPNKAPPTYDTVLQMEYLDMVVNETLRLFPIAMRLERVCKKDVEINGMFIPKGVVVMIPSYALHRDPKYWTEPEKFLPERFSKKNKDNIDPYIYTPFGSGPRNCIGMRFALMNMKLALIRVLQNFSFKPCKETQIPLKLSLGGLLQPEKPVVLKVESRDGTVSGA

## O=C(c1c(F)ccc(NS(=O)(=O)c2cc(F)ccc2F)c1F)c1c[nH]c2ncc(Cl)cc12 [P-2002, N-[3-(5-Chloro-1H-pyrrolo[2,3-b]pyridine-3-carbonyl)-2,4-difluoro-phenyl]-2,5-difluoro-benzenesulfonamide]
CYP3A4(BFC)
  IC50: > 10 µM
[1]
  IC50: > 10 µM
B-Raf V600E
  IC50: < 0.01 µM
c-Raf-1
  IC50: < 0.01 µM

## COc1cnc2[nH]cc(C(=O)c3c(F)ccc(NS(=O)(=O)c4cc(F)ccc4F)c3F)c2c1 [P-2010, N-[2,4-Difluoro-3-(5-methoxy-1H-pyrrolo[2,3-b]pyridine-3-carbonyl)-phenyl]-2,5-difluoro-benzenesulfonamide]
CYP3A4(BFC)
  IC50: > 10 µM
[1]
  IC50: > 10 µM
B-Raf V600E
  IC50: < 0.01 µM
c-Raf-1
  IC50: < 0.01 µM

## Cc1cnc2[nH]cc(C(=O)c3c(F)ccc(NS(=O)(=O)c4cc(F)ccc4F)c3F)c2c1 [P-2015, N-[2,4-Difluoro-3-(5-methyl-1H-pyrrolo[2,3-b]pyridine-3-carbonyl)-phenyl]-2,5-difluoro-benzenesulfonamide]
CYP3A4(BFC)
  IC50: > 10 µM
[1]
  IC50: > 10 µM
B-Raf V600E
  IC50: < 0.01 µM
c-Raf-1
  IC50: < 0.01 µM

## O=C(c1c(F)ccc(NS(=O)(=O)c2cc(F)ccc2F)c1F)c1c[nH]c2nccc(Cl)c12 [P-2018, N-[3-(4-Chloro-1H-pyrrolo[2,3-b]pyridine-3-carbonyl)-2,4-difluoro-phenyl]-2,5-difluoro-benzenesulfonamide]
CYP3A4(BFC)
  IC50: 5 to 10 µM
[1]
  IC50: > 10 µM
B-Raf V600E
  IC50: < 0.01 µM

## O=C(c1c(F)ccc(NS(=O)(=O)c2cccc(F)c2)c1F)c1c[nH]c2nccc(Cl)c12 [P-2019, N-[3-(4-Chloro-1H-pyrrolo[2,3-b]pyridine-3-carbonyl)-2,4-difluoro-phenyl]-3-fluoro-benzenesulfonamide]
CYP3A4(BFC)
  IC50: 5 to 10 µM
[1]
  IC50: > 10 µM
B-Raf V600E
  IC50: < 0.01 µM

## N#Cc1ccnc2[nH]cc(C(=O)c3c(F)ccc(NS(=O)(=O)c4ccccc4F)c3F)c12 [P-2020, N-[3-(4-Cyano-1H-pyrrolo[2,3-b]pyridine-3-carbonyl)-2,4-difluoro-phenyl]-2-fluoro-benzenesulfonamide]
CYP3A4(BFC)
  IC50: > 10 µM
[1]
  IC50: > 10 µM
B-Raf V600E
  IC50: < 0.01 µM
c-Raf-1
  IC50: < 0.01 µM

## COc1ccnc2[nH]cc(C(=O)c3c(F)ccc(NS(=O)(=O)c4cc(F)ccc4F)c3F)c12 [P-2022, N-[2,4-Difluoro-3-(4-methoxy-1H-pyrrolo[2,3-b]pyridine-3-carbonyl)-phenyl]-2,5-difluoro-benzenesulfonamide]
[1]
  IC50: > 10 µM
B-Raf V600E
  IC50: < 0.01 µM
c-Raf-1
  IC50: < 0.01 µM

## N#Cc1cnc2[nH]cc(C(=O)c3c(F)ccc(NS(=O)(=O)c4c(F)cccc4F)c3F)c2c1 [P-2029, N-[3-(5-Cyano-1H-pyrrolo[2,3-b]pyridine-3-carbonyl)-2,4-difluoro-phenyl]-2,6-difluoro-benzenesulfonamide]
CYP3A4(BFC)
  IC50: > 10 µM
[1]
  IC50: > 10 µM
B-Raf V600E
  IC50: < 0.01 µM
c-Raf-1
  IC50: < 0.01 µM

## COc1ccnc2[nH]cc(C(=O)c3c(F)ccc(NS(=O)(=O)c4c(F)cccc4F)c3F)c12 [P-2031, N-[2,4-Difluoro-3-(4-methoxy-1H-pyrrolo[2,3-b]pyridine-3-carbonyl)-phenyl]-2,6-difluoro-benzenesulfonamide]
CYP3A4(BFC)
  IC50: > 10 µM
[1]
  IC50: > 10 µM
B-Raf V600E
  IC50: < 0.1 µM
c-Raf-1
  IC50: < 0.1 µM

## O=C(c1c(F)ccc(NS(=O)(=O)c2c(F)cccc2F)c1F)c1c[nH]c2nccc(Cl)c12 [P-2033, N-[3-(4-Chloro-1H-pyrrolo[2,3-b]pyridine-3-carbonyl)-2,4-difluoro-phenyl]-2,6-difluoro-benzenesulfonamide]
CYP3A4(BFC)
  IC50: > 10 µM
[1]
  IC50: > 10 µM
B-Raf V600E
  IC50: < 0.01 µM
c-Raf-1
  IC50: < 0.01 µM

## N#Cc1ccnc2[nH]cc(C(=O)c3c(F)ccc(NS(=O)(=O)c4cc(F)ccc4F)c3F)c12 [P-2036, N-[3-(4-Cyano-1H-pyrrolo[2,3-b]pyridine-3-carbonyl)-2,4-difluoro-phenyl]-2,5-difluoro-benzenesulfonamide]
CYP3A4(BFC)
  IC50: > 10 µM
[1]
  IC50: > 10 µM
B-Raf V600E
  IC50: < 0.01 µM
c-Raf-1
  IC50: < 0.01 µM

## N#Cc1ccnc2[nH]cc(C(=O)c3c(F)ccc(NS(=O)(=O)c4c(F)cccc4F)c3F)c12 [P-2037, N-[3-(4-Cyano-1H-pyrrolo[2,3-b]pyridine-3-carbonyl)-2,4-difluoro-phenyl]-2,6-difluoro-benzenesulfonamide]
CYP3A4(BFC)
  IC50: > 10 µM
[1]
  IC50: > 10 µM
B-Raf V600E
  IC50: < 0.01 µM
c-Raf-1
  IC50: < 0.01 µM

## N#Cc1ccnc2[nH]cc(C(=O)c3c(F)ccc(NS(=O)(=O)c4cccc(F)c4)c3F)c12 [P-2039, N-[3-(4-Cyano-1H-pyrrolo[2,3-b]pyridine-3-carbonyl)-2,4-difluoro-phenyl]-3-fluoro-benzenesulfonamide]
CYP3A4(BFC)
  IC50: > 10 µM
[1]
  IC50: > 10 µM
B-Raf V600E
  IC50: < 0.01 µM
c-Raf-1
  IC50: < 0.01 µM

## N#Cc1cnc2[nH]cc(C(=O)c3c(F)ccc(NS(=O)(=O)c4ccccc4)c3F)c2c1 [P-2046, N-[3-(5-Cyano-1H-pyrrolo[2,3-b]pyridine-3-carbonyl)-2,4-difluoro-phenyl]-benzenesulfonamide]
CYP3A4(BFC)
  IC50: > 10 µM
[1]
  IC50: > 10 µM
B-Raf V600E
  IC50: < 0.01 µM
c-Raf-1
  IC50: < 0.01 µM

## N#Cc1cnc2[nH]cc(C(=O)c3cccc(NS(=O)(=O)c4ccccc4F)c3F)c2c1 [P-2051, N-[3-(5-Cyano-1H-pyrrolo[2,3-b]pyridine-3-carbonyl)-2-fluoro-phenyl]-2-fluoro-benzenesulfonamide]
CYP3A4(BFC)
  IC50: > 10 µM
[1]
  IC50: > 10 µM
B-Raf V600E
  IC50: < 0.01 µM
c-Raf-1
  IC50: < 0.1 µM

## N#Cc1cnc2[nH]cc(C(=O)c3cccc(NS(=O)(=O)c4cc(F)ccc4F)c3F)c2c1 [P-2052, N-[3-(5-Cyano-1H-pyrrolo[2,3-b]pyridine-3-carbonyl)-2-fluoro-phenyl]-2,5-difluoro-benzenesulfonamide]
CYP3A4(BFC)
  IC50: 5 to 10 µM
[1]
  IC50: > 10 µM
B-Raf V600E
  IC50: < 0.01 µM
c-Raf-1
  IC50: < 0.01 µM

## N#Cc1cnc2[nH]cc(C(=O)c3cccc(NS(=O)(=O)c4cccc(F)c4)c3F)c2c1 [P-2053, N-[3-(5-Cyano-1H-pyrrolo[2,3-b]pyridine-3-carbonyl)-2-fluoro-phenyl]-3-fluoro-benzenesulfonamide]
CYP3A4(BFC)
  IC50: > 10 µM
[1]
  IC50: > 10 µM
B-Raf V600E
  IC50: < 0.01 µM
c-Raf-1
  IC50: < 0.01 µM

## N#Cc1cnc2[nH]cc(C(=O)c3cccc(NS(=O)(=O)c4ccccc4)c3F)c2c1 [P-2056, N-[3-(5-Cyano-1H-pyrrolo[2,3-b]pyridine-3-carbonyl)-2-fluoro-phenyl]-benzenesulfonamide]
CYP3A4(BFC)
  IC50: > 10 µM
[1]
  IC50: > 10 µM
B-Raf V600E
  IC50: < 0.01 µM
c-Raf-1
  IC50: < 0.01 µM

## N#Cc1cnc2[nH]cc(C(=O)c3c(F)ccc(NS(=O)(=O)c4cccnc4)c3F)c2c1 [P-2072, Pyridine-3-sulfonic acid [3-(5-cyano-1H-pyrrolo[2,3-b]pyridine-3-carbonyl)-2,4-difluoro-phenyl]-amide]
CYP3A4(BFC)
  IC50: 5 to 10 µM
[1]
  IC50: > 10 µM
B-Raf V600E
  IC50: < 0.01 µM
c-Raf-1
  IC50: < 0.01 µM

## COc1ccnc2[nH]cc(C(=O)c3c(F)ccc(NS(=O)(=O)c4cccnc4)c3F)c12 [P-2073, Pyridine-3-sulfonic acid [2,4-difluoro-3-(4-methoxy-1H-pyrrolo[2,3-b]pyridine-3-carbonyl)-phenyl]-amide]
CYP3A4(BFC)
  IC50: 5 to 10 µM
[1]
  IC50: > 10 µM
B-Raf V600E
  IC50: < 0.1 µM
c-Raf-1
  IC50: < 0.01 µM

## N#Cc1ccnc2[nH]cc(C(=O)c3c(F)ccc(NS(=O)(=O)c4cccnc4)c3F)c12 [P-2077, Pyridine-3-sulfonic acid [3-(4-cyano-1H-pyrrolo[2,3-b]pyridine-3-carbonyl)-2,4-difluoro-phenyl]-amide]
CYP3A4(BFC)
  IC50: 5 to 10 µM
[1]
  IC50: > 10 µM
B-Raf V600E
  IC50: < 0.01 µM
c-Raf-1
  IC50: < 0.01 µM

## CCCS(=O)(=O)Nc1ccc(F)c(C(=O)c2c[nH]c3ncc(-c4ccc(Cl)nc4)cc23)c1F [P-2154, Propane-1-sulfonic acid {3-[5-(6-chloro-pyridin-3-yl)-1H-pyrrolo[2,3-b]pyridine-3-carbonyl]-2,4-difluoro-phenyl}-amide]
CYP3A4(BFC)
  IC50: > 10 µM
[1]
  IC50: > 10 µM
B-Raf V600E
  IC50: < 0.1 µM
c-Raf-1
  IC50: < 0.01 µM

## CCCS(=O)(=O)Nc1ccc(F)c(C(=O)c2c[nH]c3ncc(-c4ccc(S(=O)(=O)NC5CC5)cc4)cc23)c1F [P-2168, N-Cyclopropyl-4-{3-[2,6-difluoro-3-(propane-1-sulfonylamino)-benzoyl]-1H-pyrrolo[2,3-b]pyridin-5-yl}-benzenesulfonamide]
[1]
  IC50: < 5 µM
B-Raf V600E
  IC50: < 0.01 µM
c-Raf-1
  IC50: < 0.01 µM

## CCCS(=O)(=O)Nc1ccc(F)c(C(=O)c2c[nH]c3ncc(-c4cnn(CCN5CCOCC5)c4)cc23)c1F [P-2177, Propane-1-sulfonic acid (2,4-difluoro-3-{5-[1-(2-morpholin-4-yl-ethyl)-1H-pyrazol-4-yl]-1H-pyrrolo[2,3-b]pyridine-3-carbonyl}-phenyl)-amide]
CYP3A4(BFC)
  IC50: < 5 µM
[1]
  IC50: < 10 µM
B-Raf V600E
  IC50: < 0.01 µM

## CCCS(=O)(=O)Nc1ccc(F)c(C(=O)c2c[nH]c3ncc(-c4ccc(S(C)(=O)=O)cc4)cc23)c1F [P-2183, Propane-1-sulfonic acid {2,4-difluoro-3-[5-(4-methanesulfonyl-phenyl)-1H-pyrrolo[2,3-b]pyridine-3-carbonyl]-phenyl}-amide]
CYP3A4(BFC)
  IC50: > 10 µM
[1]
  IC50: > 10 µM
B-Raf V600E
  IC50: < 0.01 µM

## CCCS(=O)(=O)Nc1ccc(F)c(C(=O)c2c[nH]c3ncc(-c4cnc(N5CCCC5)nc4)cc23)c1F [P-2219, Propane-1-sulfonic acid {2,4-difluoro-3-[5-(2-pyrrolidin-1-yl-pyrimidin-5-yl)-1H-pyrrolo[2,3-b]pyridine-3-carbonyl]-phenyl}-amide]
[1]
  IC50: > 10 µM
B-Raf V600E
  IC50: < 0.1 µM
c-Raf-1
  IC50: < 0.1 µM

Source: patent publication US8198273B2, “Compounds and methods for kinase modulation, and indications therefor” (Plexxikon Inc., priority 2009, dated 2012)
